25 compounds from patent publication US20230416205A1, “COMPOUNDS, COMPOSITIONS, AND METHODS” (Denali Therapeutics Inc, priority 2020, published 2023) can be followed below.

Each structure is given as a SMILES string. Where two headings read alike, the source gives them in different places. Bounds are passed on as bounds.

The test system of this assay is NLRP3. The assay can be described thus: IL-1β secretion assay in PMA-differentiated, LPS/nigericin-stimulated THP-1 cells (384-well, ELISA read-out). The format is cell-based, human. In short, it runs like this: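 Secreted IL-1β quantified by capture ELISA from supernatants of PMA-differentiated THP-1 cells (30K per well). Sequence: LPS 25 ng/mL priming 2 h, compound 1 h, nigericin 2 h; dose-responses normalized between high (LPS plus 5 μM nigericin) and low (LPS alone) controls.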
(In general: In an ELISA, binding on a coated surface is turned into a signal by an enzyme label.)

Where [1] appears, read: Table 4, IL-1β secretion, LPS/nigericin-stimulated THP-1 cells, read-out: IC50.
Where [2] appears, read: Homo sapiens, THP-1, IL-1β secretion, PMA-differentiated THP-1 cells, LPS then nigericin stimulation, ELISA read at 450 nm, read-out: Activity.
Where [3] appears, read: Homo sapiens, THP-1, Table 4, IL-1β secretion, LPS/nigericin-stimulated THP-1 cells, read-out: IC50.

`O=C(CN1CC2(CC2)c2c(ccc(C3C[C@@H]3F)c2F)C1=O)Nc1ncc(F)cn1` (single isomer, unassigned) [Example 306, 2-[5-fluoro-6-[(1r,2s)-2-fluorocyclopropyl]-1-oxospiro[3H-isoquinoline-4,1′-cyclopropane]-2-yl]-N-(5-fluoropyrimidin-2-yl)acetamide]: under setting [1], the IC50 worked out at 0.577 µM.

On to `O=C(CN1CC2(CC2(F)F)c2c(ccc(Br)c2F)C1=O)Nc1ncc(Cl)cn1` (single isomer, unassigned) [Example 317, 2-[6-bromo-1′,1′,5-trifluoro-1-oxospiro[3H-isoquinoline-4,2′-cyclopropane]-2-yl]-N-(5-chloropyrimidin-2-yl)acetamide], for which the IC50 under setting [1] was 8.51 µM.

For `O=C(CN1CC2(CC2(F)F)c2c(ccc(Br)c2F)C1=O)Nc1ncc(Cl)cn1` (single isomer, unassigned) [Example 318, 2-[6-bromo-1′,1′,5-trifluoro-1-oxospiro[3H-isoquinoline-4,2′-cyclopropane]-2-yl]-N-(5-chloropyrimidin-2-yl)acetamide], the IC50 under setting [1] turned out to be 0.008 µM.

On to `N#Cc1cnc(NC(=O)CN2CC3(CC3(F)F)c3c(ccc(Br)c3F)C2=O)nc1` (single isomer, unassigned) [Example 319, 2-[6-bromo-1′,1′,5-trifluoro-1-oxospiro[3H-isoquinoline-4,2′-cyclopropane]-2-yl]-N-(5-cyanopyrimidin-2-yl)acetamide], for which the IC50 under setting [1] worked out at 3.05 µM.

In the case of `N#Cc1cnc(NC(=O)CN2CC3(CC3(F)F)c3c(ccc(Br)c3F)C2=O)nc1` (single isomer, unassigned) [Example 320, 2-[6-bromo-1′,1′,5-trifluoro-1-oxospiro[3H-isoquinoline-4,2′-cyclopropane]-2-yl]-N-(5-cyanopyrimidin-2-yl)acetamide], the IC50 under setting [1] was determined as 0.014 µM.

Turning to `O=C(CN1CC2(CC2(F)F)c2c(ccc(Br)c2F)C1=O)Nc1ncc(C(F)(F)F)cn1` (single isomer, unassigned) [Example 323, 2-[6-bromo-1′,1′,5-trifluoro-1-oxospiro[3H-isoquinoline-4,2′-cyclopropane]-2-yl]-N-[5-(trifluoromethyl)pyrimidin-2-yl]acetamide], the IC50 under setting [1] is greater than 10 µM.

For `O=C(CN1CC2(CC2(F)F)c2c(ccc(Br)c2F)C1=O)Nc1ncc(C(F)(F)F)cn1` (single isomer, unassigned) [Example 324, 2-[6-bromo-1′,1′,5-trifluoro-1-oxospiro[3H-isoquinoline-4,2′-cyclopropane]-2-yl]-N-[5-(trifluoromethyl)pyrimidin-2-yl]acetamide], the IC50 under setting [1] was found to be 0.027 µM.

As to `CC1(O)CC(NC(=O)CN2CC3(CC3(F)F)c3c(ccc(Br)c3F)C2=O)C1` (single isomer, unassigned) [Example 325, N-(3-cis-hydroxy-3-methylcyclobutyl)-2-[6-bromo-1′,1′,5-trifluoro-1-oxospiro[3H-isoquinoline-4,2′-cyclopropane]-2-yl]acetamide], the IC50 under setting [1] was greater than 1 µM.

Regarding `CC1(O)CC(NC(=O)CN2CC3(CC3(F)F)c3c(ccc(Br)c3F)C2=O)C1` (single isomer, unassigned) [Example 326, N-(3-cis-hydroxy-3-methylcyclobutyl)-2-[6-bromo-1′,1′,5-trifluoro-1-oxospiro[3H-isoquinoline-4,2′-cyclopropane]-2-yl]acetamide], the IC50 under setting [1] was 0.013 µM.

On to `CC1(O)CC(NC(=O)CN2C[C@@]3(C[C@@H]3F)c3cc(C(F)(F)F)ccc3C2=O)C1` (single isomer, unassigned) [Example 327, N-(3-cis-hydroxy-3-methylcyclobutyl)-2-[(2′s,4r)-2′-fluoro-1-oxo-6-(trifluoromethyl)spiro[3H-isoquinoline-4,1′-cyclopropane]-2-yl]acetamide], for which the IC50 under setting [1] is greater than 1 µM.

As for `CC1(O)CC(NC(=O)CN2C[C@@]3(C[C@@H]3F)c3cc(C(F)(F)F)ccc3C2=O)C1` (single isomer, unassigned) [Example 328, N-(3-cis-hydroxy-3-methylcyclobutyl)-2-[(2′s,4r)-2′-fluoro-1-oxo-6-(trifluoromethyl)spiro[3H-isoquinoline-4,1′-cyclopropane]-2-yl]acetamide], the IC50 under setting [1] is 0.067 µM.

With `O=C(CN1CC2(CC2)c2cc(Br)ccc2C1=O)N[C@@H]1C[C@H]2CC[C@@H]1O2` (stereo in doubt) [Example 17, 2-(6-bromo-1-oxospiro[3H-isoquinoline-4,1′-cyclopropane]-2-yl)-N-[(1S,2R,4R)-7-oxabicyclo[2.2.1]heptan-2-yl]acetamide], the IC50 by setting is: under setting [2], less than 10 µM; under setting [3], 4.19 µM.

With `CCC1CN(CC(=O)Nc2ncncc2F)C(=O)c2ccc(Br)cc21` (stereo not drawn) [Example 1, 2-(6-bromo-4-ethyl-1-oxo-3,4-dihydroisoquinolin-2(1H)-yl)-N-(5-fluoropyrimidin-4-yl)acetamide], the IC50 is, setting by setting: under setting [2], less than 10 µM; under setting [3], 1.38 µM.

As for `N#Cc1cnc(NC(=O)CN2CC3(CC3)c3cc(Br)ccc3C2=O)nc1` [Example 3], the IC50 under setting [2] was less than 10 µM and the IC50 under setting [3] worked out at 0.047 µM.

As to `O=C(CN1CC2(CC2)c2cc(Br)ccc2C1=O)Nc1ncc(Cl)cn1` [Example 4], the IC50 is, setting by setting: under setting [2], less than 10 µM; under setting [3], 0.039 µM.

For the compound `O=C(CN1CC2(CC2)c2cc(Br)ccc2C1=O)Nc1ncccn1` [Example 5], the IC50 reads like this: under setting [2], less than 10 µM; under setting [3], 0.216 µM.

Consider `O=C(CN1CC2(CC2)c2cc(Br)ccc2C1=O)Nc1ncncc1F` [Example 6], for which the IC50 is, setting by setting: under setting [2], less than 10 µM; under setting [3], 0.141 µM.

As to `N#Cc1cnc(NC(=O)CN2CC3(CC3)c3cc(Br)ccc3C2=O)c(F)c1` [Example 7], the IC50 reads like this: under setting [2], less than 10 µM; under setting [3], 0.35 µM.

For `O=C(CN1CC2(CC2)c2cc(Br)ccc2C1=O)Nc1ncc(Cl)cc1F` [Example 8], the IC50 runs as follows: under setting [2], less than 10 µM; under setting [3], 0.216 µM.

Regarding `O=C(CN1CC2(CC2)c2cc(Br)ccc2C1=O)Nc1ncc(C(F)(F)F)cc1F` [Example 9], the IC50 reads like this: under setting [2], less than 10 µM; under setting [3], 0.4 µM.

On to `O=C(CN1CC2(CC2)c2cc(Br)ccc2C1=O)Nc1ccc(Cl)nn1` [Example 10], for which the IC50 is, setting by setting: under setting [2], less than 10 µM; under setting [3], 1.3 µM.

For the compound `O=C(CN1CC2(CC2)c2cc(Br)ccc2C1=O)Nc1ccncc1F` [Example 11], the IC50 under setting [2] is less than 10 µM and the IC50 under setting [3] amounted to 0.531 µM.

Take `O=C(CN1CC2(CC2)c2cc(Br)ccc2C1=O)Nc1ncc(F)cc1F` [Example 12]: the IC50 was less than 10 µM under setting [2] and 0.588 µM under setting [3].

Consider `O=C(CN1CC2(CC2)c2cc(Br)ccc2C1=O)NC12CC(C(F)(F)F)(C1)C2` [Example 13, 2-(6-bromo-1-oxospiro[3H-isoquinoline-4,1′-cyclopropane]-2-yl)-N-[3-(trifluoromethyl)-1-bicyclo[1.1.1]pentanyl]acetamide], for which the IC50 runs as follows: under setting [2], less than 10 µM; under setting [3], 1.75 µM.

In the case of `N#CC12CC(NC(=O)CN3CC4(CC4)c4cc(Br)ccc4C3=O)(C1)C2` [Example 14, 2-(6-bromo-1-oxospiro[3H-isoquinoline-4,1′-cyclopropane]-2-yl)-N-(3-cyano-1-bicyclo[1.1.1]pentanyl)acetamide], the IC50 is less than 10 µM under setting [2] and 3.12 µM under setting [3].
